Source: ChEMBL document CHEMBL1146178, “Synthesis and antiviral activity against tobacco mosaic virus and 3D-QSAR of alpha-substituted-1,2,3-thiadiazoleacetamides” (Bioorg Med Chem Lett, 2006)

These molecules were tested on Hepatitis B virus (assay: Antiviral activity against HBV in HepG2 2.2.15 cells assessed as inhibition of HBeAg at 0.6 umol/mL).
Format: functional
Work on `CNC(=O)C(Oc1cc(C)ccc1Cl)c1csnn1` (stereo not given) yielded an Inhibition of 15.5%.

What follows are molecules tested on Hepatitis B virus (assay: Antiviral activity against HBV in HepG2 2.2.15 cells assessed as inhibition of HBeAg at 0.4 umol/mL).
Format: functional
For `CNC(=O)C(Oc1cc(C)ccc1Cl)c1csnn1` (stereo not given), the Inhibition was 44.2%.

The molecules below were run on Tobacco mosaic virus (assay: Antiviral activity against TMV at 500 mg/L).
Format: functional
For `CNC(=O)C(c1csnn1)[S+]([O-])c1ccc(F)cc1` (stereo not given), the inhibition at 500 µg/mL was 11%.
With `CNC(=O)C(Sc1nc2nc(C)cc(C)n2n1)c1csnn1` (stereo not given) the inhibition at 500 µg/mL was 5%.
For `CNC(=O)C(c1csnn1)S(=O)(=O)c1ccccc1F` (stereo not given), the inhibition at 500 µg/mL was 82%.
With `CNC(=O)C(Sc1cc(C)ccc1C)c1csnn1` (stereo not given) the inhibition at 500 µg/mL was 0%.
With `CNC(=O)C(Sc1ccc(Cl)cc1)c1csnn1` (stereo not given) the inhibition at 500 µg/mL was 42%.
Molecule `CNC(=O)C(Sc1cc(Cl)ccc1Cl)c1csnn1` (stereo not given) has an inhibition at 500 µg/mL of 0%.
`CNC(=O)C(Oc1ccccc1Br)c1csnn1` (stereo not given) showed an inhibition at 500 µg/mL of 44%.
Molecule `CNC(=O)C(Oc1cc(C)ccc1Cl)c1csnn1` (stereo not given) has an inhibition at 500 µg/mL of 56%.
With `CNC(=O)C(c1csnn1)[S+]([O-])c1ccccc1F` (stereo not given) the inhibition at 500 µg/mL was 19%.
Molecule `CNC(=O)C(Sc1nnc(-c2c(C)nn(C)c2SC)s1)c1csnn1` (stereo not given) has an inhibition at 500 µg/mL of 35%.
Work on `CNC(=O)C(Oc1ccccc1Cl)c1csnn1` (stereo not given) yielded an inhibition at 500 µg/mL of 53%.
Molecule `CNC(=O)C(Sc1ccccc1F)c1csnn1` (stereo not given) has an inhibition at 500 µg/mL of 37%.
Work on `CNC(=O)C(c1csnn1)S(=O)(=O)Cc1ccc(Cl)cc1` (stereo not given) yielded an inhibition at 500 µg/mL of 51%.
`CNC(=O)C(c1csnn1)S(=O)(=O)c1cc(C)ccc1C` (stereo not given) gave an inhibition at 500 µg/mL of 12%.
In the case of `CNC(=O)C(c1csnn1)S(=O)(=O)c1ccc(OC)cc1` (stereo not given), the inhibition at 500 µg/mL is reported as 0%.
`CNC(=O)C(Sc1ccc(F)cc1)c1csnn1` (stereo not given) was tested, and the inhibition at 500 µg/mL was 33%.
In the case of `CNC(=O)C(c1csnn1)[S+]([O-])c1ccc(Cl)cc1` (stereo not given), the inhibition at 500 µg/mL is reported as 31%.
Molecule `CNC(=O)C(c1csnn1)S(=O)(=O)c1ccc(F)cc1` (stereo not given) has an inhibition at 500 µg/mL of 19%.
For `CNC(=O)C(c1csnn1)[S+]([O-])c1cc(C)ccc1C` (stereo not given), the inhibition at 500 µg/mL was 0%.
`CNC(=O)C(c1csnn1)n1cncn1` (stereo not given) showed an inhibition at 500 µg/mL of 42%.
With `CNC(=O)C(Oc1ccc2ccccc2c1)c1csnn1` (stereo not given) the inhibition at 500 µg/mL was 44%.
With `CNC(=O)C(c1csnn1)[S+]([O-])Cc1ccc(Cl)cc1` (stereo not given) the inhibition at 500 µg/mL was 20%.
`CNC(=O)C(SCc1ccc(Cl)cc1)c1csnn1` (stereo not given) showed an inhibition at 500 µg/mL of 35%.
`CNC(=O)C(Oc1ccc(Br)cc1)c1csnn1` (stereo not given) gave an inhibition at 500 µg/mL of 64%.
`CNC(=O)C(Oc1cccc(C)c1)c1csnn1` (stereo not given) gave an inhibition at 500 µg/mL of 5.5%.

Each molecule was assayed on Hepatitis B virus (assay: Antiviral activity against HBV in HepG2 2.2.15 cells assessed as inhibition of viral DNA synthesis).
Format: functional, organism-based
Molecule `CNC(=O)C(Oc1cc(C)ccc1Cl)c1csnn1` (stereo not given) has an IC50 of 400 µM.

These molecules were tested on Hepatitis B virus (assay: Antiviral activity against HBV in HepG2 2.2.15 cells assessed as inhibition of HBsAg at 0.6 umol/mL).
Format: functional
With `CNC(=O)C(Oc1cc(C)ccc1Cl)c1csnn1` (stereo not given) the Inhibition was 88.6%.

What follows are molecules tested on Hepatitis B virus (assay: Antiviral activity against HBV in HepG2 2.2.15 cells assessed as inhibition of HBsAg at 0.4 umol/mL).
Format: functional
Molecule `CNC(=O)C(Oc1cc(C)ccc1Cl)c1csnn1` (stereo not given) has an Inhibition of 52.9%.
